Key:
[1] = target: T1, squalene synthetase (Rattus norvegicus, UniProt Q02769); experiment: Squalene synthetase assay (rat liver microsomes, [4-14C]farnesyl-pyrophosphate); type: biochemical; settings: 30° C., 20 minutes, read-out: IC50, squalene synthetase inhibition
T1 construct: The resulting microsomal pellet was resuspended in a volume of the above homogenizing buffer; from tissue; host or cells: rat liver microsomes (male Charles River CD rats fed 0.1% lovastatin)
T1 sequence (Q02769 1-416): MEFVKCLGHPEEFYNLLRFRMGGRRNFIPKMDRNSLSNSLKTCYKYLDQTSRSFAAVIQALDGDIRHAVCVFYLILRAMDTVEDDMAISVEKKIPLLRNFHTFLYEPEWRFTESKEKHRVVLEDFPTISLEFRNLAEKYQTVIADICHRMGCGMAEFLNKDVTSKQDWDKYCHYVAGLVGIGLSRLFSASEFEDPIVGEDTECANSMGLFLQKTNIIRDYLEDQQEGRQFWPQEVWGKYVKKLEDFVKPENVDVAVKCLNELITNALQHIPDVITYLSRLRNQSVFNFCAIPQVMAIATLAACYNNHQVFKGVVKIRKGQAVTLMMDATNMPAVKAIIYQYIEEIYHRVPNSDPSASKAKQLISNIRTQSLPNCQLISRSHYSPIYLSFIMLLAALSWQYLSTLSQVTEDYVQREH
Procedure: Male, Charles River CD rats (120 to 150 g) were fed a diet containing 0.1% lovastatin for 4 days. The livers from these rats were homogenized in 5 volumes (ml/g) of ice cold 50 mM HEPES (4-(2-hydroxyethyl)-1-piperazine-ethanesulfonic acid), 5 mM EDTA(ethylenediaminetetraacetic acid) pH 7.5 with a Potter-Elvehjem type tissue grinder. The homogenate was centrifuged twice at 20,000× g for 15 minutes at 4° C., discarding the pellet each time. The supernatant was then centrifuged at 100,000× g for 1 hour at 4° C. The resulting microsomal pellet was resuspended in a volume of the above homogenizing buffer equal to one-fifth the volume of the original homogenate. This microsomal preparation has a protein concentration of about 7 mg/ml. The microsomal suspensions were stored in aliquots at -70° C. Squalene synthetase activity in these aliquots is stable for at least several months.
Reaction were performed in 16×125 mm screw cap test tubes. A batch assay mix was prepared from the following solution:
This assay mix was degassed under a vacuum and flushed with N2. […] Ten ml of scintillation fluid was added to the heptane solution and radioactivity was determined by liquid scintillation counting.
Percent inhibition is calculated by the formula: [formula]
IC50 values were determined by plotting the log of the concentration of the test compound versus the percentage inhibition.

[2] = test system: cholesterol synthesis; experiment: Measurement of inhibition of cholesterol synthesis in mice ([3H]mevalonolactone incorporation in liver); type: in vivo; settings: female Swiss-Webster mice, subcutaneous
Procedure: Female Swiss-Webster mice, approximately 25 grams, were dosed subcutaneously with the test compound or just with saline for controls. The tri-sodium salt of Compound A was dissolved in 0.9% NaCl and administered in a volume of less than 0.1 ml. Thirty minutes after receiving a dose of the test compound or saline for the controls, the mice were subcutaneously administered a dose of 0.5 uCi of R,S-[5-^3 H]mevalonolactone (35 Ci/mmol). The tracer mevalonolactone was dissolved in 0.9% NaCl and administered in a volume of 0.05 ml. Thirty minutes after receiving the dose of mevalonolactone, the animals were euthanized, and the livers were removed and saponified in a solution of 4 ml of 40% KOH and 2 ml of 95% ethanol overnight at 65° C. The saponified livers were extracted with two 5 ml volumes of petroleum ether. Incorporation of ^3 H into this petroleum ether fraction was used to measure cholesterol synthesis. Inhibition of cholesterol synthesis was determined by comparing the incorporation of ^3 H in the petroleum ether fraction in control animals to the incorporation in the petroleum ether fraction in the compound test animals.

C/C(=C\C(C)Cc1ccccc1)CCCCCC(C(=O)O)C(O)(CC(=O)O)C(=O)O (stereo not drawn) [Compound A] was tested, and the IC50 [1] was ~300 nM, the ED50 ([2]; Mus musculus, sc, tri-sodium salt in 0.9% NaCl, dosed 30 min before [3H]mevalonolactone) was ~15 mg/kg and the “inhibition of cholesterol synthesis in mice (in words)” value [2] was “potent inhibitor of cholesterol synthesis in mice”.

Source: patent publication US5286895A, “Cholesterol lowering compounds” (Merck & Co., Inc., priority 1992, dated 1994)
